Source: ChEMBL document CHEMBL1909046, “DrugMatrix in vitro pharmacology data”

Legend:
[1] = target: T1, Alpha-2A adrenergic receptor (Homo sapiens, UniProt P08913); assay type: cell membranes, Sf9, Membrane; settings: sf9; note: in other assays of this panel Not Active means under 50% inhibition at 10 µM
T1 sequence (P08913 whole entry): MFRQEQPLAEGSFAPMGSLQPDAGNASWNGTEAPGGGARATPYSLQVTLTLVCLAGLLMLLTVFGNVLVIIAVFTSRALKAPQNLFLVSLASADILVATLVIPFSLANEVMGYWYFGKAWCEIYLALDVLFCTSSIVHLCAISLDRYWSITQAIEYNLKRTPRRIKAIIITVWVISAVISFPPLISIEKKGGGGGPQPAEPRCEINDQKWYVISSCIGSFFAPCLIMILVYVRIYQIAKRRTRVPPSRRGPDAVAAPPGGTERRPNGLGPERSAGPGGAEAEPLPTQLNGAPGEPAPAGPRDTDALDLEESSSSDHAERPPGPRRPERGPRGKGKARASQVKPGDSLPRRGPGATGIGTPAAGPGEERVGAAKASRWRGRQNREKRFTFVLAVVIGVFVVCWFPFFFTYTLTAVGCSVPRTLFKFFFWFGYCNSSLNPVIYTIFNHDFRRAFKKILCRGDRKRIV

[2] = target: Matrix metalloproteinase-9 (Homo sapiens, UniProt P14780); assay type: cell-based;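 note: inhibition of isolated MMP-9 enzyme activity toward a synthetic peptide substrate, from the DrugMatrix protease screening panel; in other assays of this panel Not Active means under 50% inhibition at 10 µM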
[3] = target: Sodium-dependent dopamine transporter (Homo sapiens, UniProt Q01959); experiment: DRUGMATRIX: Dopamine Transporter radioligand binding (ligand: [125I] RTI-55); assay type: cell membranes, CHO-K1, Membrane; settings: cho-k1; Not Active = under 50% inhibition at 10 µM
[4] = target: T2, Neuropeptide Y receptor type 1 (Homo sapiens, UniProt P25929); assay type: cell membranes, Membrane; settings: sk-n-mc; note: in other assays of this panel Not Active means under 50% inhibition at 10 µM
T2 sequence (P25929 whole entry): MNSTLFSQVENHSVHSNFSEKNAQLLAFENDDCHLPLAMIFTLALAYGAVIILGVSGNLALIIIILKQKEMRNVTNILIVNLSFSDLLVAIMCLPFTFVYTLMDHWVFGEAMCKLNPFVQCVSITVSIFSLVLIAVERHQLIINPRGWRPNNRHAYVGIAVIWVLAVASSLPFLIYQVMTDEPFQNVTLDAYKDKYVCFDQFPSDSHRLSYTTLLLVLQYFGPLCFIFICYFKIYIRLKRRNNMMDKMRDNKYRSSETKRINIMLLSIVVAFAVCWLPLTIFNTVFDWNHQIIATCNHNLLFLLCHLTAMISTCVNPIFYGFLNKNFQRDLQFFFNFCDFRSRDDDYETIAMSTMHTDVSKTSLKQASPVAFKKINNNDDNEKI

[5] = DRUGMATRIX: Calcium Channel Type L, Phenylalkylamine radioligand binding (ligand: [3H] (-)-Desmethoxyverapamil (D-888)); assay type: cell membranes, Rattus norvegicus, Wistar, Brain, Membrane; settings: Not Active = under 50% inhibition at 10 µM
[6] = target: Prostaglandin G/H synthase 1 (Homo sapiens, UniProt P23219); experiment: biochemical; assay type: tissue-based, Platelet; settings: platelet;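 note: inhibition of COX-1 enzyme activity, with arachidonic acid supplied as substrate; in other assays of this panel Not Active means under 50% inhibition at 10 µM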
[7] = target: T3, Nitric oxide synthase, inducible (Mus musculus, UniProt P29477); design: species or system Escherichia coli
T3 sequence (P29477 whole entry): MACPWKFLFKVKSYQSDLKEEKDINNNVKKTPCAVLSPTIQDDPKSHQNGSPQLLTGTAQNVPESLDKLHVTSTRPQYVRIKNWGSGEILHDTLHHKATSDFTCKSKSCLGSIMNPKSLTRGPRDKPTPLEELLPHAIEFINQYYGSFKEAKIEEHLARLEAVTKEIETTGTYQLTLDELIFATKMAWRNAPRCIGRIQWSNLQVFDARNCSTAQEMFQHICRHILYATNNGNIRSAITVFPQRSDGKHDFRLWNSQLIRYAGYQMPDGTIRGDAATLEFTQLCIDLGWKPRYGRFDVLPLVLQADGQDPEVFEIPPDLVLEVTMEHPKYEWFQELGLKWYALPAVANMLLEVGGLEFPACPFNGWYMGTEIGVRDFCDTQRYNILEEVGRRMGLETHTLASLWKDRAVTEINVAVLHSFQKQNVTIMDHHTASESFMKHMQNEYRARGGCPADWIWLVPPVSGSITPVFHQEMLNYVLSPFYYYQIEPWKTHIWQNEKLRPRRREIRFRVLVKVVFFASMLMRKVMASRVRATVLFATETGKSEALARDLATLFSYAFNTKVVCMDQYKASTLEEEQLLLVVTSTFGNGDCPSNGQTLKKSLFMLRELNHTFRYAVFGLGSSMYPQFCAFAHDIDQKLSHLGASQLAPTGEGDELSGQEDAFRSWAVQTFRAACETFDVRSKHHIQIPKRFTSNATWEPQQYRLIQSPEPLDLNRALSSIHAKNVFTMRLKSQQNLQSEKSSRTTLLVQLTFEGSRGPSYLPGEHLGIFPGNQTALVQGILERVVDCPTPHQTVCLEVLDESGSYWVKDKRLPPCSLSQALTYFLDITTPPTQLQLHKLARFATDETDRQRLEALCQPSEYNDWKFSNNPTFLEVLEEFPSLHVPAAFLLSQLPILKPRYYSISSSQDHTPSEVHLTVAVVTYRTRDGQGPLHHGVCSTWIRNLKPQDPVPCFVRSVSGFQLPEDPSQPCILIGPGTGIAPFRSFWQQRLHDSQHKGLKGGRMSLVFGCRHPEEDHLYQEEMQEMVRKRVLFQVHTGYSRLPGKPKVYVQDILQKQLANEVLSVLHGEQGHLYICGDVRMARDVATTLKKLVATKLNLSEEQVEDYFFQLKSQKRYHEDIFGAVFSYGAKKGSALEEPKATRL

[8] = target: T4, Polyunsaturated fatty acid lipoxygenase ALOX15 (Oryctolagus cuniculus, UniProt P12530); experiment: biochemical; assay type: tissue-based, Reticulocytes; settings: reticulocytes
T4 sequence (P12530 whole entry): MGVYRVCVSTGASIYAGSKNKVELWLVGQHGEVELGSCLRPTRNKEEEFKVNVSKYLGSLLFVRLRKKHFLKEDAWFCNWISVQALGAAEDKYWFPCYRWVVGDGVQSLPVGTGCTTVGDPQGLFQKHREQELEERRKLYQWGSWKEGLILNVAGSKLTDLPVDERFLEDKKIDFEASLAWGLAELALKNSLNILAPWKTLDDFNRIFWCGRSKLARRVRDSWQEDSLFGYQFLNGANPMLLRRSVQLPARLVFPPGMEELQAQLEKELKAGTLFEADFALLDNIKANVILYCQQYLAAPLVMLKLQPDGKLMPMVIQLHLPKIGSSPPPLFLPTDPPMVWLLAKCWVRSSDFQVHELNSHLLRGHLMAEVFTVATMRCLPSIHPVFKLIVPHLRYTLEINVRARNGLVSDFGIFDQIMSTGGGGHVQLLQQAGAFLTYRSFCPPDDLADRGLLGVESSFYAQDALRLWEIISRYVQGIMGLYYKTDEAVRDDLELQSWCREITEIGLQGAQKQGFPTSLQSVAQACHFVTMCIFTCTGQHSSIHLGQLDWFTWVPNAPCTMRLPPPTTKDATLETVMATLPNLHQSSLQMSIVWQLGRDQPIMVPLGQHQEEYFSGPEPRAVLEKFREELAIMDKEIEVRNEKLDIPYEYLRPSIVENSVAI

Prostaglandin G/H synthase 1, sequence (P23219 whole entry): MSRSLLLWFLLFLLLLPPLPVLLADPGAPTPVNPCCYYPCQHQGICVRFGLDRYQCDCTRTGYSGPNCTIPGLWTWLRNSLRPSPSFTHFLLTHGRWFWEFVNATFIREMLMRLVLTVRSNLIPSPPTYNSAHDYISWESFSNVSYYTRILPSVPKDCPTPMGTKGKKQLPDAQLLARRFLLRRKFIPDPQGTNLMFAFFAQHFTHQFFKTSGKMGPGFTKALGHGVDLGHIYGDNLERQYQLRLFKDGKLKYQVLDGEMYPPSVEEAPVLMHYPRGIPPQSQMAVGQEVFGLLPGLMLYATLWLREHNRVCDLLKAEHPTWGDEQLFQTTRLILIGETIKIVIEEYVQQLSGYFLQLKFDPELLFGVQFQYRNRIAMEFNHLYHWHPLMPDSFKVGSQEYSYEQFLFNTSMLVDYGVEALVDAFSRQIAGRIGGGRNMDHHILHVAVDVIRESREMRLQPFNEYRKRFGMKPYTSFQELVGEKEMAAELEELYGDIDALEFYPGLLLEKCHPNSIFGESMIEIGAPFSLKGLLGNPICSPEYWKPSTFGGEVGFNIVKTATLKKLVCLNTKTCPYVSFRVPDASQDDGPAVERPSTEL
Matrix metalloproteinase-9, sequence (P14780 whole entry): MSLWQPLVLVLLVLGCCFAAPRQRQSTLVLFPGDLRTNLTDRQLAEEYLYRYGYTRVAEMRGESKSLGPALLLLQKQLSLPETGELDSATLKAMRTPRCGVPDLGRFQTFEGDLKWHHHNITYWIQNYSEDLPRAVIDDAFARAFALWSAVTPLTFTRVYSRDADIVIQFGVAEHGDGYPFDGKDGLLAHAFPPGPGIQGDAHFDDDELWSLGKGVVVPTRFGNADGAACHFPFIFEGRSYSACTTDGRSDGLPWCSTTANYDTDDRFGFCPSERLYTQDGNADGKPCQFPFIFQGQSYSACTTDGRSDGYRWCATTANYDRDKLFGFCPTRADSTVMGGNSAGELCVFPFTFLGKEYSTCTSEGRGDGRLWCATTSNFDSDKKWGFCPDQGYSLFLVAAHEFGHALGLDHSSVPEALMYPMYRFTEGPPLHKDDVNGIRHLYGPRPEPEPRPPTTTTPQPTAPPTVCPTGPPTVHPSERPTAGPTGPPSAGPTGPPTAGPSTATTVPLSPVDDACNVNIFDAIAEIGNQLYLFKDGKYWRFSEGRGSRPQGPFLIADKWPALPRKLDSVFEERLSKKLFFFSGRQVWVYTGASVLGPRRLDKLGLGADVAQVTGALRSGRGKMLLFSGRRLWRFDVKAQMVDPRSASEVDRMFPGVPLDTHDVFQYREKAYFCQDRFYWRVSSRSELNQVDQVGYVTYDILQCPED
Sodium-dependent dopamine transporter, sequence (Q01959 whole entry): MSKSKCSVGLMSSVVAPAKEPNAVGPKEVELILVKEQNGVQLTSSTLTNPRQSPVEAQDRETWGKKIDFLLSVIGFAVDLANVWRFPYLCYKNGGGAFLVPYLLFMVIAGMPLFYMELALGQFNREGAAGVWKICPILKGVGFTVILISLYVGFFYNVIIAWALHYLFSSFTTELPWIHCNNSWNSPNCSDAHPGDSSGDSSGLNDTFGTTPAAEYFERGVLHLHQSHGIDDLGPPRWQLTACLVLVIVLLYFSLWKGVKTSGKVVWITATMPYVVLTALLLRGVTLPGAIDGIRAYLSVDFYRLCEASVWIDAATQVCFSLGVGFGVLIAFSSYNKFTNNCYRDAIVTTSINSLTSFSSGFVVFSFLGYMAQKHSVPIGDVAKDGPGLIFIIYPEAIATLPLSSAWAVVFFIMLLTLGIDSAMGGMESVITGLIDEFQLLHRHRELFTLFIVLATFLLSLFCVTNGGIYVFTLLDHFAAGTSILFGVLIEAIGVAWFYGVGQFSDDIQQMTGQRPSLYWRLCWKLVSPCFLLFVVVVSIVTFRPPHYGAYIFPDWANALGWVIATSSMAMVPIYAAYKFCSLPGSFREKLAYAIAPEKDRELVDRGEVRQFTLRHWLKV

CC(=O)[C@H]1CC[C@H]2[C@@H]3CCC4=CC(=O)CC[C@]4(C)[C@H]3CC[C@]12C [PROGESTERONE]
Not Active: IC50 [1] | IC50 [2] | IC50 [3] | IC50 [4] | IC50 [5] | Ki [5] | IC50 [6] | IC50 [7] | IC50 [8]

NC(=O)c1ncn([C@@H]2O[C@H](CO)[C@@H](O)[C@H]2O)n1 [RIBAVIRIN]
Not Active: IC50 [1] | IC50 [2] | IC50 [3] | IC50 [4] | IC50 [5] | Ki [5] | IC50 [6] | IC50 [7] | IC50 [8]

O=[N+]([O-])c1cc([As](=O)(O)O)ccc1O [ROXARSONE]
Not Active: IC50 [1] | Ki [1] | IC50 [2] | Ki [2] | IC50 [3] | Ki [3] | IC50 [4] | Ki [4] | IC50 [5] | Ki [5] | IC50 [6] | Ki [6] | IC50 [7] | Ki [7] | IC50 [8] | Ki [8]

CC[C@H]1OC(=O)[C@H](C)[C@@H](O[C@H]2C[C@@](C)(OC)[C@@H](O)[C@H](C)O2)[C@H](C)[C@@H](O[C@@H]2O[C@H](C)C[C@H](N(C)C)[C@H]2O)[C@](C)(O)C[C@@H](C)/C(=N\OCOCCOC)[C@H](C)[C@@H](O)[C@]1(C)O [ROXITHROMYCIN]
Not Active: IC50 [1] | IC50 [2] | IC50 [3] | IC50 [4] | IC50 [5] | Ki [5] | IC50 [6] | IC50 [7] | IC50 [8]

NC(=O)c1ccccc1O [SALICYLAMIDE]
Not Active: IC50 [1] | IC50 [2] | IC50 [3] | IC50 [4] | IC50 [5] | Ki [5] | IC50 [6] | IC50 [7] | IC50 [8]

Cc1ncc([N+](=O)[O-])n1CC(C)O (stereo not given) [SECNIDAZOLE]
Not Active: IC50 [1] | IC50 [2] | IC50 [3] | IC50 [4] | IC50 [5] | Ki [5] | IC50 [6] | IC50 [7] | IC50 [8]

CN[C@@H]1[C@@H](O)[C@@H](O[C@@H]2[C@@H](O)[C@H](O[C@H]3OC(CN)=CC[C@H]3N)[C@@H](N)C[C@H]2N)OC[C@]1(C)O [SISOMICIN]
Not Active: IC50 [1] | IC50 [2] | IC50 [3] | IC50 [4] | IC50 [5] | Ki [5] | IC50 [6] | IC50 [7] | IC50 [8]

CC(=O)S[C@@H]1CC2=CC(=O)CC[C@]2(C)[C@H]2CC[C@@]3(C)[C@@H](CC[C@@]34CCC(=O)O4)[C@H]12 [SPIRONOLACTONE]
Not Active: IC50 [1] | IC50 [2] | IC50 [3] | IC50 [4] | IC50 [5] | Ki [5] | IC50 [6] | IC50 [7] | IC50 [8]

C[C@]12Cc3c[nH]nc3C[C@@H]1CC[C@@H]1[C@@H]2CC[C@@]2(C)[C@H]1CC[C@]2(C)O [STANOZOLOL]
Not Active: IC50 [1] | IC50 [2] | IC50 [3] | IC50 [4] | IC50 [5] | Ki [5] | IC50 [6] | IC50 [7] | IC50 [8]

CN(N=O)C(=O)N[C@@H](C=O)[C@@H](O)[C@H](O)[C@H](O)CO [STREPTOZOCIN]
Not Active: IC50 [1] | IC50 [2] | IC50 [3] | IC50 [4] | IC50 [5] | Ki [5] | IC50 [6] | IC50 [7] | IC50 [8]

Cc1cc(NS(=O)(=O)c2ccc(N)cc2)no1 [SULFAMETHOXAZOLE]
Not Active: IC50 [1] | IC50 [2] | IC50 [3] | IC50 [4] | IC50 [5] | Ki [5] | IC50 [6] | IC50 [7] | IC50 [8]

Nc1ccc(S(N)(=O)=O)cc1 [SULFANILAMIDE]
Not Active: IC50 [1] | IC50 [2] | IC50 [3] | IC50 [4] | IC50 [5] | Ki [5] | IC50 [6] | IC50 [7] | IC50 [8]
